# How the values were obtained:
# Aqueous solubility = assay type: physicochemical
# E. Coli E96 = test: Subcutaneous synergistic activity with amoxycillin, intraperitoneal mouse infection, E. Coli E96; assay type: in vivo
# Text: (§1) 9-N-Isobutylaminodeoxyclavulanic acid and 9-N-n-butylaminodeoxyclavulanic acid have been compared as synergists in vivo by the subcutaneous route against 2 strains of RTEM E. Coli in intraperitoneal mouse infections.
# (§2) Comparative subcutaneous synergistic activity of 9-N-Isobutylaminodeoxyclavulanic acid and 9-N-n-butylaminodeoxyclavulanic acid with amoxycillin against mouse E. Coli infections
# E. Coli E124 = test: Subcutaneous synergistic activity with amoxycillin, intraperitoneal mouse infection, E. Coli E124; assay type: in vivo
# Text: as §1, §2
# E. coli JT 39 [1] = test: Effectiveness as synergist with amoxycillin, peritoneal infection due to E. coli JT 39 (Demonstration 2); assay type: in vivo; settings: for ED50: Escherichia coli, JT39, sc, Test 1, alone, sub-cutaneous 1 and 5 hours post infection, read-out: CD50 (approximate), compound alone
# [2] = system: staphylococcus aureus Russell; test: Effectiveness as anti-bacterial, mice infected with Staphylococcus aureus Russell (thigh lesion); assay type: in vivo; settings: for Protection (%): subcutaneous at 1, 3 and 5 hours post infection
# Protocol: Mice were infected with staphylococcus aureus Russell (thigh lesion with 0.2 ml im) and thereafter were dosed subcutaneously at 1, 3 and 5 hours post infection with a solution of the test compound.
# in vivo = settings: mouse, ip
# [3] = system: β-lactamase producing strains of gram-negative and gram-positive bacteria; test: Synergistic/antibacterial activity in-vivo, general statement; settings: with penicillins and cephalosporins
# LD50 in mice = settings: mouse, in vivo, sc
# E. coli JT 39 [4] = test: In-vivo synergistic effect with amoxycillin in mice infected by E. coli JT 39
# Protocol: This microorganism produces considerable quantities of a β-lactamase which degrades amoxycillin so reducing its antibaceterial effectiveness in-vivo.
# (Sodium amoxycillin was prepared by dissolving amoxycillin trihydrate in
# sodium carbonate/sodium bicarbonate buffer).
smiles,measurement,setting,value
CC(C)CNC/C=C1\O[C@@H]2CC(=O)N2[C@H]1C(=O)O [9-N-Isobutylaminodeoxyclavulanic acid],aqueous solubility,Aqueous solubility,increased aqueous solubility
same,"relative synergist activity in vivo, 2 strains of RTEM E. Coli","E. Coli E96; subcutaneous route, intraperitoneal mouse infections, both strains (E96, E124)",more active then the n-butylamine
CC1(C)S[C@@H]2[C@H](NC(=O)[C@H](N)c3ccc(O)cc3)C(=O)N2[C@H]1C(=O)O [Amoxycillin],"CD50, amoxycillin alone","E. Coli E124; E. Coli E124, P412",> 1000 mg/kg × 2
same,ED50,"E. Coli E124; Escherichia coli, sc, E. Coli E124, P397, alone, read-out: CD50, amoxycillin alone",> 1000 mg/kg
same,ED50,E. coli JT 39 [1],1000 mg/kg
same,"CD50 (approximate), compound alone","E. coli JT 39 [1]; Test 2, sub-cutaneous 1 and 5 hours post infection",1000 mg/kg × 2
same,"CD50 (approximate), compound alone","E. coli JT 39 [1]; Test 3, sub-cutaneous 1 and 5 hours post infection",1000 mg/kg × 2
same,"CD50, amoxycillin alone","E. Coli E96; E. Coli E96, P409, alone",> 1000 mg/kg × 2
same,ED50,"E. Coli E96; Escherichia coli, sc, E. Coli E96, P392, alone, read-out: CD50, amoxycillin alone",> 1000 mg/kg
"Cc1nnc(SCC2=C(C(=O)O)N3C(=O)[C@@H](NC(=O)Cn4cnnn4)[C@H]3SC2)s1 [Cefazolin, reference compound]",ED50,E. coli JT 39 [1],10.5 mg/kg
same,Protection (%),[2]; 20 mg/kg,39.0%
same,Protection (%),[2]; 50 mg/kg,71.2%
"Cc1onc(-c2ccccc2Cl)c1C(=O)N[C@@H]1C(=O)N2[C@@H]1SC(C)(C)[C@@H]2C(=O)O [Cloxacillin, reference compound]",Protection (%),[2]; 20 mg/kg,61.6%
same,Protection (%),[2]; 50 mg/kg,91.7%
"O=C(O)[C@H]1/C(=C/CNCc2ccccc2)O[C@@H]2CC(=O)N21 [Example 2, 9-N-Benzylaminodeoxyclavulanic acid]",LD50,in vivo,> 1000 mg/kg
same,synergistic activity in-vivo,[3],particularly good synergistic activity in-vivo
same,LD50,LD50 in mice,> 500 mg/kg
same,protecting amoxycillin from the β-lactamase of E. coli JT 39 in-vivo,E. coli JT 39 [4]; administered orally,less effective per given weight than when administered sub-cutaneously
same,toxic effects during these tests,"E. coli JT 39 [4]; in-vivo synergy tests, mice",not observed to produce toxic effects
same,Protection (%),[2]; 5 mg/kg,69.8%
same,Protection (%),[2]; 10 mg/kg,89.7%
same,Protection (%),[2]; 20 mg/kg,99.3%
same,effectiveness in treating certain infections due to Staphylococcus aureus Russell,"[2]; compared with ampicillin, cloxacillin or cefazolin","more effective than ampicillin, cloxacillin or cefazolin"
"COc1ccc(CNC/C=C2\O[C@@H]3CC(=O)N3[C@H]2C(=O)O)cc1 [Example 7, 9-N-(4-Methoxybenzyl)aminodeoxyclavulanic acid]",Protection (%),[2]; 5 mg/kg,28.0%
same,Protection (%),[2]; 10 mg/kg,80.8%
same,Protection (%),[2]; 20 mg/kg,87.6%
"CC1(C)S[C@@H]2[C@H](NC(=O)[C@H](N)c3ccc(O)cc3)C(=O)N2[C@H]1C(=O)O [Sodium amoxycillin, reference compound]",ED50,"E. coli JT 39 [4]; Escherichia coli, JT39, sc, sub-cutaneous, mice, alone, read-out: CD50, sodium amoxycillin alone",200 mg/kg
